Test results: ChEMBL document CHEMBL5696442, “Discovery of type II inhibitors of TGFβ-activated kinase 1 (TAK1) and mitogen-activated protein kinase kinase kinase kinase 2 (MAP4K2)” (J Med Chem, 2015)
Activity calls are given as the source filed them. The calls are words filed in the database; no cut-off is given here.

What was measured:
[1] = target: T1, Serine/threonine-protein kinase TAO2 (Homo sapiens) (UniProt Q9UL54); assay: Inhibition of TAO2 K2 labeling site in human Huh-7 cells at 10 uM by KiNativ Profiling analysis relative to control; type: cell-based
T1 sequence (whole entry): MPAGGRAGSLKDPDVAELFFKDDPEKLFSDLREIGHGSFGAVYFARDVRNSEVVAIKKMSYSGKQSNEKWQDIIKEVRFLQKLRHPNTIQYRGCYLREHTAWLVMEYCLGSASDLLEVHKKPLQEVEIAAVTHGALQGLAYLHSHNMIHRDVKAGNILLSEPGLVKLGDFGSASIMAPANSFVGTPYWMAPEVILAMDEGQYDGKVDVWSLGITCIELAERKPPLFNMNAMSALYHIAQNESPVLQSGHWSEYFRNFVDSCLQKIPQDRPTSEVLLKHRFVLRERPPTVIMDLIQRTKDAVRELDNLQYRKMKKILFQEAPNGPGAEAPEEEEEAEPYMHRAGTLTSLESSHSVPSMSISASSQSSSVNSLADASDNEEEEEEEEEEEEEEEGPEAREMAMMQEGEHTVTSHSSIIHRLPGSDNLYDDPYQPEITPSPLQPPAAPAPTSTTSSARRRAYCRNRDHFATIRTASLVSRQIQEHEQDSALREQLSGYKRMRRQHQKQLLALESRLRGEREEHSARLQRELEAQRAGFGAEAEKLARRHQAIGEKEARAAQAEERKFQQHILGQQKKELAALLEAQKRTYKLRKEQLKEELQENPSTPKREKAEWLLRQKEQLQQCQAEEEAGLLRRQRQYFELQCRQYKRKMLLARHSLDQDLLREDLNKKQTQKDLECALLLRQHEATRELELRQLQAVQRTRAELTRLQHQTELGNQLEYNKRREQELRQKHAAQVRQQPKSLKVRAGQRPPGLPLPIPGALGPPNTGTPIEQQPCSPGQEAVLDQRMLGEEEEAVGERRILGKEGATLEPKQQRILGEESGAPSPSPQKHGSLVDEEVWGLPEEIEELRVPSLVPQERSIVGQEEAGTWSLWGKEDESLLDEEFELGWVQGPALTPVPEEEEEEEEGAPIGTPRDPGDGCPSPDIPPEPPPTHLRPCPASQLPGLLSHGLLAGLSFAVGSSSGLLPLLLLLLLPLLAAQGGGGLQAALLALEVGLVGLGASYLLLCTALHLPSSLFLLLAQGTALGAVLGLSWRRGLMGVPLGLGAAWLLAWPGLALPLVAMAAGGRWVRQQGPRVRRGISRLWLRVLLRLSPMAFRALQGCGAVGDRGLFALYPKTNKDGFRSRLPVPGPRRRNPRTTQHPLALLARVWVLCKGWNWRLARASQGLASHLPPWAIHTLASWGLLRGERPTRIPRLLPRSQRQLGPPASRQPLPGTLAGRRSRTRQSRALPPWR

[2] = target: T2, Inhibitor of nuclear factor kappa-B kinase subunit epsilon (Homo sapiens) (UniProt Q14164); assay: Inhibition of IKK-epsilon (unknown origin) at 10 uM by Ambit Kinomescan binding assay
T2 sequence (whole entry): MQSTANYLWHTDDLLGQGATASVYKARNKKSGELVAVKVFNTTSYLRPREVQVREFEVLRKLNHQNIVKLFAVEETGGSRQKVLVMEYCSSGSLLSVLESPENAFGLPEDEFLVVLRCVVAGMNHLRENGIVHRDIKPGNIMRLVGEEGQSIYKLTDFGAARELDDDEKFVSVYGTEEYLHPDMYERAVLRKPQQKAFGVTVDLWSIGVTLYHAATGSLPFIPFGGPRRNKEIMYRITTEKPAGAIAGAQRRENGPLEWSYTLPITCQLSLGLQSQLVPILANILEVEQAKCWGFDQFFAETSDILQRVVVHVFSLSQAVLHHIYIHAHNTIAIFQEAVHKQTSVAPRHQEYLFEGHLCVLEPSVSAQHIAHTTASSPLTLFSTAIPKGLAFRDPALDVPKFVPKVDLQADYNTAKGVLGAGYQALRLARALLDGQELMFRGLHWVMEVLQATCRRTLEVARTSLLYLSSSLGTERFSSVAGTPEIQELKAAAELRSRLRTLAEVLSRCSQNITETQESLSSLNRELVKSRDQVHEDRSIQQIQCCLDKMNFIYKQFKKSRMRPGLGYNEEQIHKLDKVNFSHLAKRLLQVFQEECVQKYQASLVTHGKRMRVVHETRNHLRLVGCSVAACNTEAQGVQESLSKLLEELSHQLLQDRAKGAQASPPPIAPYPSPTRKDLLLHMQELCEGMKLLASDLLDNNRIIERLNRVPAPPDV

[3] = target: Serine/threonine-protein kinase Chk2 (Homo sapiens) (UniProt O96017); assay: Inhibition of CHEK2 (unknown origin) at 10 uM by Ambit Kinomescan binding assay
[4] = target: Dual specificity mitogen-activated protein kinase kinase 1 (Homo sapiens) (UniProt Q02750); assay: Inhibition of MAP2K1 Lys1 labeling site in human A-375 cells at 5 uM by KiNativ Profiling analysis relative to control; type: cell-based
[5] = target: Dual specificity mitogen-activated protein kinase kinase 1 (Homo sapiens) (UniProt Q02750); assay: Inhibition of MAP2K1 Lys2 labeling site harbouring DVKPSNILVNSR in human A-375 cells at 5 uM by KiNativ Profiling analysis relative to control; type: cell-based
[6] = target: T3, Acylglycerol kinase, mitochondrial (Homo sapiens) (UniProt Q53H12); assay: Inhibition of AGK ATP labeling site in human A-375 cells at 0.05 uM by KiNativ Profiling analysis relative to control; type: cell-based
T3 sequence (whole entry): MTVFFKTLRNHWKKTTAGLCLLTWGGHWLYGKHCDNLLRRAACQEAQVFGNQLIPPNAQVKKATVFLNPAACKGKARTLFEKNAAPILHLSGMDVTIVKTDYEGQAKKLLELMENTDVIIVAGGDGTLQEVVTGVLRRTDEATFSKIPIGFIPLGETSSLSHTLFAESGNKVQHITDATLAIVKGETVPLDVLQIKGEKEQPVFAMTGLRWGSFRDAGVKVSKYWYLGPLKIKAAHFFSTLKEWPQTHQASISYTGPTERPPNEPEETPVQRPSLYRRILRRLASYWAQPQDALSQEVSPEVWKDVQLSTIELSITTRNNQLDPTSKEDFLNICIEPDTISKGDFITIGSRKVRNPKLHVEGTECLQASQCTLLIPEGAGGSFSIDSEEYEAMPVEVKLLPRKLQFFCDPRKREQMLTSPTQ

[7] = target: Cyclin-dependent kinase 2 (Homo sapiens) (UniProt P24941); assay: Inhibition of CDK2 Lys1 labeling site in human A-375 cells at 0.5 uM by KiNativ Profiling analysis relative to control; type: cell-based
[8] = target: Casein kinase II subunit alpha (Homo sapiens) (UniProt P68400); assay: Inhibition of CSNK2A1 (unknown origin) at 1 uM by Ambit Kinomescan binding assay relative to control; values are per cent of control
[9] = target: T1, Serine/threonine-protein kinase TAO2 (Homo sapiens); assay: Inhibition of TAO2 Lys2 labeling site in human A-375 cells at 0.05 uM by KiNativ Profiling analysis relative to control; type: cell-based

Chain of Dual specificity mitogen-activated protein kinase kinase 1 (Homo sapiens) (Q02750 whole entry): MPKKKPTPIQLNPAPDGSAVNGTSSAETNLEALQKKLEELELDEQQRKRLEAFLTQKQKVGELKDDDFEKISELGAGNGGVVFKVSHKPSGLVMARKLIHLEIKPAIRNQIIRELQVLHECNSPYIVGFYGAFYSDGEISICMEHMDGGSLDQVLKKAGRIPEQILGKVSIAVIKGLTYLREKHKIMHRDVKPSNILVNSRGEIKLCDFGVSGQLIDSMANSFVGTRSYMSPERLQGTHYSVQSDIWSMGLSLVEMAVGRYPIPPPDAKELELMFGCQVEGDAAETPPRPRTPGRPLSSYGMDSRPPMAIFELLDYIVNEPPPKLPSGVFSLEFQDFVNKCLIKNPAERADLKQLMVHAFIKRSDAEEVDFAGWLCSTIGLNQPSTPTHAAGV
Chain of Serine/threonine-protein kinase Chk2 (Homo sapiens) (O96017 whole entry): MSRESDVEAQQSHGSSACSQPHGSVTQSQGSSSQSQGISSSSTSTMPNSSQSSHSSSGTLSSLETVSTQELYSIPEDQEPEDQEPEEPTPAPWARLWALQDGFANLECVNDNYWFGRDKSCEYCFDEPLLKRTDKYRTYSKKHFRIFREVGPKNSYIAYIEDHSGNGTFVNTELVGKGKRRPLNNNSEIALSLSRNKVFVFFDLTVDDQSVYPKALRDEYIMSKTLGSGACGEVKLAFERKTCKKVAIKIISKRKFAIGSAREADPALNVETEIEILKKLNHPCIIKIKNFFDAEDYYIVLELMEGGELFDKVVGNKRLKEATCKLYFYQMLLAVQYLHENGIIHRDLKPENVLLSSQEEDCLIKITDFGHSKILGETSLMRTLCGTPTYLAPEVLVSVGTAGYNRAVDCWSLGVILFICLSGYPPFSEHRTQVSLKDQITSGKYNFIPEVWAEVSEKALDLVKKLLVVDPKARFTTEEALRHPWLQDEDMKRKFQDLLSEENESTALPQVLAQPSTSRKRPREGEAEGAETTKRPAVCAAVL
Chain of Casein kinase II subunit alpha (Homo sapiens) (P68400 whole entry, looked up): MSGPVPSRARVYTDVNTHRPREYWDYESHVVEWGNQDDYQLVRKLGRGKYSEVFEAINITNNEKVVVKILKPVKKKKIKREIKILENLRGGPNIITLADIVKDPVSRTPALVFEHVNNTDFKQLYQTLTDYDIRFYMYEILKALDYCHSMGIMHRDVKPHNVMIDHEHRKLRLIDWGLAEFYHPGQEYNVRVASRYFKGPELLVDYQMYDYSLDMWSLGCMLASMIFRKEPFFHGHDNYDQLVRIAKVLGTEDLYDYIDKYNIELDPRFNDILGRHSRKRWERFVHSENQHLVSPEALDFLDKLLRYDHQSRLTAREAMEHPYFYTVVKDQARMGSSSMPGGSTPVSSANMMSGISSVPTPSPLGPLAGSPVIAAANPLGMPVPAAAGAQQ

Structure (SMILES)	inhibition [1] [%]	inhibition [2]	inhibition [3]	inhibition [4] [%]	inhibition [5] [%]	inhibition [6] [%]	inhibition [7] [%]	residual activity [8] [%]	inhibition [9] [%]
CCN1CCN(Cc2ccc(NC(=O)c3ccc(C)c(Oc4ccnc5[nH]ccc45)c3)cc2C(F)(F)F)CC1	28.6	inactive	inactive	1.3	-10	–	–	–	–
CCN1CCN(Cc2ccc(NC(=O)c3ccc(C)c(/C=C/c4cnc5[nH]ccc5c4OC)c3)cc2C(F)(F)F)CC1	–	–	–	–	–	16.8	20.7	100	21.5
